Data as given in PMC10174618, “Monoterpenoid aryl hydrocarbon receptor allosteric antagonists protect against ultraviolet skin damage in female mice” (Nature Communications, 2023).

How the values were obtained:
Experiment in all cases: biochemical
Set-up in all cases: KINOMEscan scanMAX active site-directed competition binding assay, percent of control, 468 kinases
Details in all cases: competition binding, percent of control
[1] = target: CSNK1G1 (Homo sapiens, UniProt Q9HCP0)
How it was run: (§1)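 KINOMEscan active site-directed competition binding assay against 468 human kinases with 100 μM S-carvone. Binding expressed as % of control, with 35% of control as the inhibition threshold.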

[2] = target: EGFR(L747-T751del,Sins) (Homo sapiens, UniProt P00533, DEL747-750/T751S)
How it was run: as §1

[3] = target: ERBB4 (Homo sapiens, UniProt Q15303)
ERBB4, sequence (Q15303 whole entry): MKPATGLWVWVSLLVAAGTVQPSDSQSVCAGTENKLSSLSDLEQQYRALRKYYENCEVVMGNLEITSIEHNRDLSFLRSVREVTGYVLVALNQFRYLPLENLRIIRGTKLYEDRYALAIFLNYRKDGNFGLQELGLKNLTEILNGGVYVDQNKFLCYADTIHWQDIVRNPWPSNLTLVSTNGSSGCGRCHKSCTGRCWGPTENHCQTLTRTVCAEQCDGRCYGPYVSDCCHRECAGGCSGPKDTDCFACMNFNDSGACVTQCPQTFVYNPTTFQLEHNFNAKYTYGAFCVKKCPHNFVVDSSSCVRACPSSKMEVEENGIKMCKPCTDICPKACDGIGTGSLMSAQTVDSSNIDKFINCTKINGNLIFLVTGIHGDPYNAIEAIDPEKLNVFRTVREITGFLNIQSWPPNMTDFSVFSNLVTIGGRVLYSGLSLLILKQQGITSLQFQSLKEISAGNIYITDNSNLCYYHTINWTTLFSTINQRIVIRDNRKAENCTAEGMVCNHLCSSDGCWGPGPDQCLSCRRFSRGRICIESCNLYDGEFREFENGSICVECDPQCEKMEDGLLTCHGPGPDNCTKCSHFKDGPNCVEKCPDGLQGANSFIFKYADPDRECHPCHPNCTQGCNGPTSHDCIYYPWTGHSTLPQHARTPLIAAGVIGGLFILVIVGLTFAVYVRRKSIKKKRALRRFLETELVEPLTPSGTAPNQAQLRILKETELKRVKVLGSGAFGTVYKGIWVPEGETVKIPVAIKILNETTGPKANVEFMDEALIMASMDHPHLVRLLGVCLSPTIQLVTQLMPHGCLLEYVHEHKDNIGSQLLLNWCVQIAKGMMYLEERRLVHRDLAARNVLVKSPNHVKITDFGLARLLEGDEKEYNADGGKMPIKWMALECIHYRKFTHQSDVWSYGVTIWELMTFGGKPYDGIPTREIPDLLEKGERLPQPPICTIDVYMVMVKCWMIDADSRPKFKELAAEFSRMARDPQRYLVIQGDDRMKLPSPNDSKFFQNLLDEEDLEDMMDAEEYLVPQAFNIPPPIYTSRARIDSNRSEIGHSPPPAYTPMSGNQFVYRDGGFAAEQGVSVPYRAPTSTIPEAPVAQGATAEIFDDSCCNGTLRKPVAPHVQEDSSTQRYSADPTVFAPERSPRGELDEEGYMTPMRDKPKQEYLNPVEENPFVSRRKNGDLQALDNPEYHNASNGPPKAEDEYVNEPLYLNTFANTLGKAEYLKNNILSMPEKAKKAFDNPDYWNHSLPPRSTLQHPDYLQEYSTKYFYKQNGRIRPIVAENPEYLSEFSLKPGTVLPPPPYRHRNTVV
How it was run: as §1

[4] = target: FLT3(ITD) (Homo sapiens, UniProt P36888, ITD)
FLT3(ITD), sequence (P36888 564-993, change not shown): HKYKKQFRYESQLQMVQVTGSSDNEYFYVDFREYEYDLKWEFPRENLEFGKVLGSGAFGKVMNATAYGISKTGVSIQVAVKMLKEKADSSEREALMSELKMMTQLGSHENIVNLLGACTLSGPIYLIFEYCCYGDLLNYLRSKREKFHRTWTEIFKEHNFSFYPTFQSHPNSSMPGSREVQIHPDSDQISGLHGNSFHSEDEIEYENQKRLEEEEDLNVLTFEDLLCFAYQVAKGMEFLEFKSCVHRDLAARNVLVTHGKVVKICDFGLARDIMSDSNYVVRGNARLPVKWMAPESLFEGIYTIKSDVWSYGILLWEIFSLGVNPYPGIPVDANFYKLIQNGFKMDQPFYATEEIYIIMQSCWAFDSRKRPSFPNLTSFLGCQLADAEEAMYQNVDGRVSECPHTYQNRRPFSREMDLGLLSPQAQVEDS
How it was run: as §1

[5] = target: GAK (Homo sapiens, UniProt O14976)
How it was run: as §1

[6] = target: T1, JAK1(JH2domain-pseudokinase) (Homo sapiens, UniProt P23458)
T1 construct: JH2domain-pseudokinase
How it was run: as §1

[7] = target: MAPKAPK5 (Homo sapiens, UniProt Q8IW41)
MAPKAPK5, sequence (Q8IW41 whole entry): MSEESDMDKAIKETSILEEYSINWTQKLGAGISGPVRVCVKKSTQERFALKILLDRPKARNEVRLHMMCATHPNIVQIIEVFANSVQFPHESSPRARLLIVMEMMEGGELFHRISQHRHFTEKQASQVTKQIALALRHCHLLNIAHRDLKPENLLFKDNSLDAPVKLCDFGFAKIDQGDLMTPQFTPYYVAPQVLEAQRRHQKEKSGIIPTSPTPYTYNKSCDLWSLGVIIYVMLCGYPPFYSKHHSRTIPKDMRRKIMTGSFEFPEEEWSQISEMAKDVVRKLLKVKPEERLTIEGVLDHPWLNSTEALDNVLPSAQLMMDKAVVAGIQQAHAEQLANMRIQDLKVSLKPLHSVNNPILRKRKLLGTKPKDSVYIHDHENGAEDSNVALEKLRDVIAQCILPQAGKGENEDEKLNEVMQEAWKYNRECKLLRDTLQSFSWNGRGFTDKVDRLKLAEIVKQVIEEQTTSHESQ
How it was run: as §1

[8] = target: T2, MEK1 (Homo sapiens, UniProt Q02750)
T2 construct: gene MAP2K1
How it was run: as §1

[9] = target: MYLK4 (Homo sapiens, UniProt Q86YV6)
How it was run: as §1

[10] = target: NEK1 (Homo sapiens, UniProt Q96PY6)
How it was run: as §1

[11] = target: NEK2 (Homo sapiens, UniProt P51955)
How it was run: as §1

[12] = target: NLK (Homo sapiens, UniProt Q9UBE8)
How it was run: as §1

[13] = target: PIK3CA(E545K) (Homo sapiens, UniProt P42336, E545K)
PIK3CA(E545K), sequence (P42336 whole entry E545K): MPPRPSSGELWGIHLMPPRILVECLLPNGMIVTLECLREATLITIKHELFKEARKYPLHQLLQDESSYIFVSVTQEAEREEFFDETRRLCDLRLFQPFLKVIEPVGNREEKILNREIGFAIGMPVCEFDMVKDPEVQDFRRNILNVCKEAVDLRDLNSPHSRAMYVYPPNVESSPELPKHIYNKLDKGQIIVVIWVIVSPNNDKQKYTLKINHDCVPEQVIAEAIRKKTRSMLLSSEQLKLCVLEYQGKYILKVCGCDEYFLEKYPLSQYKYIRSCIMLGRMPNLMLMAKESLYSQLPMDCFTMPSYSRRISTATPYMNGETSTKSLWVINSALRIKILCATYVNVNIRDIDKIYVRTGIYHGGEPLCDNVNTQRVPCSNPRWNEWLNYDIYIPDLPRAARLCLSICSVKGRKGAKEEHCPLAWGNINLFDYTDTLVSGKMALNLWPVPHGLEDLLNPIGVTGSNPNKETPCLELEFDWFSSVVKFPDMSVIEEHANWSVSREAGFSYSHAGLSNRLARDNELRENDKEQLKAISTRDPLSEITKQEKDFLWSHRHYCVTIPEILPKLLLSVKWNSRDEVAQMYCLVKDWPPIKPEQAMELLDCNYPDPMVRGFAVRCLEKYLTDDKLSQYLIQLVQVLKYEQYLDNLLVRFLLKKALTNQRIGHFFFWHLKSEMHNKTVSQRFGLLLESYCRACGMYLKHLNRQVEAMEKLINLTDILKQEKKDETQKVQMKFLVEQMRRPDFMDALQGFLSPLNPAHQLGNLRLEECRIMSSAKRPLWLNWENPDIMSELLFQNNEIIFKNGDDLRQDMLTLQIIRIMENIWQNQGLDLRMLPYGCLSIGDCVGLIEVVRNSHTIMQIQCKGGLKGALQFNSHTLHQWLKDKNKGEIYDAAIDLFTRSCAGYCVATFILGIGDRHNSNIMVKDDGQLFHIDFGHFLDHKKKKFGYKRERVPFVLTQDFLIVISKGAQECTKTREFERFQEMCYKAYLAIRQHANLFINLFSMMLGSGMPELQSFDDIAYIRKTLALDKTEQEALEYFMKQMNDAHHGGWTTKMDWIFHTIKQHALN
How it was run: as §1

[14] = target: PRKCD (Homo sapiens, UniProt Q05655)
How it was run: as §1

[15] = target: T3, RSK2(Kin.Dom.1-N-terminal) (Homo sapiens, UniProt P51812)
T3 construct: gene RPS6KA3; Kin.Dom.1-N-terminal
How it was run: as §1

[16] = target: TAOK2 (Homo sapiens, UniProt Q9UL54)
TAOK2, sequence (Q9UL54 whole entry): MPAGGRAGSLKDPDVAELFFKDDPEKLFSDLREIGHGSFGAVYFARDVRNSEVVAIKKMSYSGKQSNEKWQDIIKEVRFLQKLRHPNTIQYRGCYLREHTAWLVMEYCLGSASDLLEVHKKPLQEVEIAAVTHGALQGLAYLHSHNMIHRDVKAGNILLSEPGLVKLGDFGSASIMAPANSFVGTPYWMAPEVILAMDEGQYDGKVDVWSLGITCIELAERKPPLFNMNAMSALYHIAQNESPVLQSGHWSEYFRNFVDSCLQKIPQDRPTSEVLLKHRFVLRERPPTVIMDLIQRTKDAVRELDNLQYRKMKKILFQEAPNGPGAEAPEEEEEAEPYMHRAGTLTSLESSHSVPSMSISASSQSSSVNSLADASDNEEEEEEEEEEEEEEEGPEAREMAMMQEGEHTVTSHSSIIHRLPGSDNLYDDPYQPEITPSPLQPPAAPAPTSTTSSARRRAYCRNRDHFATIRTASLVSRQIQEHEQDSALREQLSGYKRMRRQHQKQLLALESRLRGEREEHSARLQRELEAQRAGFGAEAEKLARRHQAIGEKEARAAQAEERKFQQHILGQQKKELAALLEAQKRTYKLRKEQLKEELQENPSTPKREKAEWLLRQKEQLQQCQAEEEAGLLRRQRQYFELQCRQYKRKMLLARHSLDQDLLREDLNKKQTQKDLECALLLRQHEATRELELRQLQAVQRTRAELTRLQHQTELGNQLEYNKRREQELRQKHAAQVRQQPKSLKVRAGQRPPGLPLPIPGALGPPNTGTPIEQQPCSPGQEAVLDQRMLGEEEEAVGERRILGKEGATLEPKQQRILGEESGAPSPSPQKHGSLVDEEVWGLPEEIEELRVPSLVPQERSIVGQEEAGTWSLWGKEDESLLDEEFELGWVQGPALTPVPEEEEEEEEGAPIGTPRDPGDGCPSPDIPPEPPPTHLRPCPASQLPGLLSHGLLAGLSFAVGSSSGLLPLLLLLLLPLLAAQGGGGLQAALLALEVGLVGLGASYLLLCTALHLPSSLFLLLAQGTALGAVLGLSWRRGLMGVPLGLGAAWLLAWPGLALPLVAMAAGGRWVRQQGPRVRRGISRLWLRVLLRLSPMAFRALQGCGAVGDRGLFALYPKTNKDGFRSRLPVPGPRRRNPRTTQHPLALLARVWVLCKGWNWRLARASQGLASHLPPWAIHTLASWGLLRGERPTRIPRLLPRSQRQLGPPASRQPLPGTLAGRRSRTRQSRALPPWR
How it was run: as §1

[17] = target: TXK (Homo sapiens, UniProt P42681)
TXK, sequence (P42681 whole entry): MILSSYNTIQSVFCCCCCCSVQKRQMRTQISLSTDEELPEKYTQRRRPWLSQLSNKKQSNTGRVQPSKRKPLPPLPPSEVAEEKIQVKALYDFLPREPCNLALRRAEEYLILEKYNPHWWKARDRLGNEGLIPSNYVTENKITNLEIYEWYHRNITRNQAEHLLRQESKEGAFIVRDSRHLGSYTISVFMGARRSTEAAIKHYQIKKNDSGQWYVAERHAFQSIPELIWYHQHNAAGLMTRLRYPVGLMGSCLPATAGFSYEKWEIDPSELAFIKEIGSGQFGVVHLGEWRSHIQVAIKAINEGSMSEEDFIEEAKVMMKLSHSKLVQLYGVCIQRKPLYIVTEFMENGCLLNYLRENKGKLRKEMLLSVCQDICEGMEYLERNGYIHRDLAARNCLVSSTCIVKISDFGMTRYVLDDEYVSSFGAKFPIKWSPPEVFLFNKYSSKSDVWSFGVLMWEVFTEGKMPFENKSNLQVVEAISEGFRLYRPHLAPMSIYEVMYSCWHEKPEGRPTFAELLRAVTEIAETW
How it was run: as §1

[18] = target: WNK2 (Homo sapiens, UniProt Q9Y3S1)
How it was run: as §1

[19] = target: T4, YANK2 (Homo sapiens, UniProt Q9NY57)
T4 construct: gene STK32B
How it was run: as §1

[20] = target: ZAP70 (Homo sapiens, UniProt P43403)
How it was run: as §1

[21] = target: T5, p38-beta (Homo sapiens, UniProt Q15759)
T5 construct: gene MAPK11
How it was run: as §1

remaining binding at 100 µM [1]: 100%
remaining binding at 100 µM [2]: 78%
remaining binding at 100 µM [3]: 81%
remaining binding at 100 µM [4]: 92%
remaining binding at 100 µM [5]: 83%
remaining binding at 100 µM [6]: 58%
remaining binding at 100 µM [7]: 87%
remaining binding at 100 µM [8]: 71%
remaining binding at 100 µM [9]: 93%
remaining binding at 100 µM [10]: 94%
remaining binding at 100 µM [11]: 100%
remaining binding at 100 µM [12]: 81%
remaining binding at 100 µM [13]: 63%
remaining binding at 100 µM [14]: 90%
remaining binding at 100 µM [15]: 89%
remaining binding at 100 µM [16]: 78%
remaining binding at 100 µM [17]: 89%
remaining binding at 100 µM [18]: 77%
remaining binding at 100 µM [19]: 79%
remaining binding at 100 µM [20]: 84%
remaining binding at 100 µM [21]: 98%
Structure (SMILES): C=C(C)[C@H]1CC=C(C)C(=O)C1 [S-carvone]
